What was measured:
[1] = NO generation by diorgano ditelluride from GSNO and GSH monitored by NOA; assay type: biochemical; conditions: GSNO and GSH in PBS pH 7.4, EDTA, ambient temperature; FIG. 13
[2] = Catalytic NO generation by ditelluride compounds via chemiluminescence NO analyzer (NOA); assay type: biochemical
Method: FIG. 19A also depicts other measurements of catalytic NO generation by ditelluride compounds. […] The rate of NO generation slowly decreases with time to reach a steady-state that lasts until all of the GSNO is consumed.

Row | SMILES | NO generated relative to amount of catalyst used [1] | NO signal upon adding catalytic amounts ([2]; 2.5 μM catalyst, GSNO 25 μM, GSH 100 μM in PBS buffer, FIG. 19A) | RSNO decomposition to NO without RSH ([2]; absence of RSH, FIG. 19B)
1 | O=C(O)CCCCC[Te][Te]CCCCCC(=O)O [compound 2] | much more NO than the amount of diorgano ditelluride | – | –
2 | O=C(O)c1ccc([Te][Te]c2ccc(C(=O)O)s2)s1 [DTDTCA 2, 5,5′-ditelluro-2,2′-dithiophenecarboxylic acid] | – | relatively large signal appears quickly | decomposes RSNO to NO even in the absence of RSH
